Experimental data from patent US8058476B2, “HCI polymorphs of 3-((2-(dimethylamino)methyl(cyclohex-1-yl)) phenol” (priority 2005, dated 2011).
Entries after “also recorded” stand apart in the source; their conditions may differ. Counter-ions that a name gives are not always drawn. Like-named read-outs stand apart in the source and are kept apart here.

What was measured:
[1] = Stability in air / chemical stability (description); conditions: for stability in air: normal conditions / ambient temperature
[2] = for sequence of stability at room temperature: conditions for avoiding the formation of solvates, from Examples 8.1 to 8.4; for crystalline form found by Raman spectrum: Example 8.4: forms IV and II together in ethyl acetate
[3] = Absorption of water by dynamic vapour sorption (DVS); assay type: physicochemical; conditions: 25° C.; for water content of the sample if the relative air humidity is reduced to 0%: 0% relative air humidity; for water content of the sample if the relative air humidity is reduced to 0% / water content at 50% relative air humidity at the end of the measuring cycle / relative air humidity above which the crystalline form absorbs water very quickly: hydrochloride
Protocol: The absorption of water is ascertained by dynamic vapour sorption (DVS) with a DVS-1 instrument manufactured by Surface Measurement Systems Ltd. The sample is placed in a platinum crucible at the pivot of a microbalance. The sample is then initially equilibrated at 50% relative air humidity and then subjected to a predefined measuring program. The temperature was 25° C. The change in weight of the sample is determined.

[4] = Thermodynamic stability of the crystalline form (description); assay type: physicochemical; conditions: low temperatures
[5] = Hydrate formation in the presence of atmospheric moisture (description); assay type: physicochemical; conditions: for relative air humidity at which hydrates of the crystalline form V are formed: hydrochloride
[6] = Humid storage of the crystalline forms II and III at 25° C. and 60% relative air humidity; assay type: physicochemical
Protocol: Storage conditions: 25° C. and 60% relative air humidity for 5 hrs, 24 hrs and 7 days
The substances were weighed directly into DSC and TGA crucibles, and these crucibles were stored in a climate chamber.
50 mg of the substances were weighed into 1 ml vials, three times in each case, and these vials were then stored openly in a climate chamber.

[7] = Example 8.1: forms I and II together in ethyl acetate, eleven days, 25° C.
[8] = presence of atmospheric moisture
[9] = 25° C., 60% relative air humidity, 24 hours, second test series
[10] = Example 8.3: forms III and II together in ethyl acetate, three days, 23° C.
[11] = stir-mixing in ethyl acetate, 23° C.

Compound | crystalline form found by Raman spectrum after stirring [2, 7] | sequence of stability at room temperature [2] | water content of the sample if the relative air humidity is reduced to 0% [3] | water content at 50% relative air humidity at the end of the measuring cycle [3] | recorded Raman spectrum at the end of the measuring cycle [3] | relative air humidity above which the crystalline form absorbs water very quickly [3] | relative air humidity at which hydrates of the crystalline form V are formed [5, 8] | water content [6, 9] | crystalline form found by Raman spectrum after stirring [2, 10] | stability in air [1] | stability in air ([1]; hydrochloride) | other results
CN(C)CC1CCCCC1c1cccc(O)c1 [Amorphous compounds of the formula (1), (1R,2R)-3-[2-(dimethylamino)-methyl(cyclohex-1-yl)]phenol hydrochloride] |  |  |  |  |  |  |  |  |  |  |  | stability of the amorphous form ([1]; in the presence of moisture tends to form hydrates): not very stable
CN(C)C[C@@H]1CCCC[C@H]1c1cccc(O)c1.Cl [crystalline form I, (1R,2R)-3[-2-(dimethylamino)methyl-(cyclohex-1-yl)]phenol hydrochloride] | predominantly contained the crystalline form I and small amounts of form V | I>II>III≈IV | 3.2 wt. % | 7.2% | corresponds to the Raman spectrum of the crystalline form V | > 50% | > 50% |  |  |  |  | temperature up to which the form is thermodynamically the most stable form [4]: approximately 40 °C
CN(C)C[C@@H]1CCCC[C@H]1c1cccc(O)c1.Cl [crystalline form II, (1R,2R)-3-[2-(dimethylamino)methyl-(cyclohex-1-yl)]phenol hydrochloride] | predominantly contained the crystalline form I and small amounts of form V | I>II>III≈IV | 3.3 wt. % | 7.9% | corresponds to the Raman spectrum of the crystalline form V | > 75% | > 70% | 6.08% | only bands of the crystalline form II are measured | stable under normal conditions in air and with exclusion of atmospheric moisture |  | water absorbed ([6]; 25° C., 60% relative air humidity, 5 hours, first test series (DSC and TGA crucibles), listed as modification II, hydrochloride): 0.04%; water absorbed ([6]; 25° C., 60% relative air humidity, 5 hours, second test series (50 mg in open 1 ml vials), listed as modification II, hydrochloride): 0.12%; water absorbed ([6]; 25° C., 60% relative air humidity, 24 hours, first test series, listed as modification II, hydrochloride): 3.28%; water-absorption behavior ([6]; 25° C., 60% relative air humidity, both test series): absorbs water more slowly in both tests than modification III; water content ([6]; 25° C., 60% relative air humidity, one week, first test series, listed as modification II, hydrochloride): 7.03%; water content ([6]; 25° C., 60% relative air humidity, one week, second test series, listed as modification II, hydrochloride): 7.04%; proportion of water after storage ([6]; 5 hours of storage at a relative air humidity of 60%): < 0.15 wt. %; crystalline form found by Raman spectrum ([2]; 23° C., after 32 days): almost exclusively the crystalline form I was detected; crystalline form found by Raman spectrum ([2]; 23° C., after the first three days): the first traces of the crystalline form I were detected; crystalline form found by Raman spectrum ([2]; 23° C., initially): only bands of the crystalline form II were measured; time at which a small proportion of the crystalline form I can be detected [2, 11]: after three days of stir-mixing; time until complete conversion into the crystalline form I [2, 11]: 32 days; chemical stability [1]: good chemical stability; hygroscopicity ([5]; compared with other crystalline forms): less hygroscopic than the compounds of the crystalline forms I, III and IV; relative air humidity at which hydrates of the crystalline form V are formed (only slowly) [5, 8]: > 70%
CN(C)C[C@@H]1CCCC[C@H]1c1cccc(O)c1.Cl [crystalline form III, (1R,2R)-3-[2-(dimethylamino)methyl-(cyclohex-1-yl)]phenol hydrochloride] |  | I>II>III≈IV | 3.1 wt. % | 7.8% | corresponds to the Raman spectrum of the crystalline form V | > 55% | > 50% | 6.08% | only bands of the crystalline form II are measured | stable under normal conditions in air and with exclusion of atmospheric moisture |  | water absorbed ([6]; 25° C., 60% relative air humidity, 5 hours, first test series (DSC and TGA crucibles), listed as modification III, hydrochloride): 6.70%; water absorbed ([6]; 25° C., 60% relative air humidity, 5 hours, second test series (50 mg in open 1 ml vials), listed as modification III, hydrochloride): 1.92%; water absorbed ([6]; 25° C., 60% relative air humidity, 24 hours, first test series, listed as modification III, hydrochloride): 6.28%; water content ([6]; 25° C., 60% relative air humidity, one week, first test series, listed as modification III, hydrochloride): 6.74%; water content ([6]; 25° C., 60% relative air humidity, one week, second test series, listed as modification III, hydrochloride): 6.83%; crystalline form found by Raman spectrum after stirring ([2]; Example 8.2: forms III and IV together in ethyl acetate, twelve days, 23° C.): only bands of the crystalline form I were measured
CN(C)CC1CCCCC1c1cccc(O)c1 [crystalline form IV, (1R,2R)-3-[2-(dimethylamino)methyl(cyclohex-1-yl)]phenol hydrochloride] |  | I>II>III≈IV |  |  |  |  |  |  |  |  | stable under normal conditions in air and with exclusion of atmospheric moisture | 
CN(C)CC1CCCCC1c1cccc(O)c1 [crystalline form V, (1R,2R)-3-[2-(dimethylamino)methyl(cyclohex-1-yl)]phenol hydrochloride] |  |  |  |  |  |  |  |  |  |  | stable in air under normal conditions; also recorded: stable at ambient temperature in air | 
